{"source": "patent US20250339405A1", "about": "“a-SYNUCLEIN AGGREGATE BINDING AGENT AND IMAGING METHOD” (National Institutes for quantum and Radiological Science …, priority 2019, published 2025)", "key": {"α-synuclein aggregate [1]": {"biological_target": "T1, α-synuclein aggregate (Homo sapiens, UniProt P37840)", "test": "Binding to α-synuclein aggregate versus tau aggregate (inventors' finding, no method given)"}, "[2]": {"tested_on": "aggregate of tau or amyloid-β formed in the brain of the AD patient", "test": "In vitro fluorescence microscope measurement, AD patient brain sections", "assay_type": "binding, human", "details": "AD and DLB patient brain sections, 30 μM", "from_the_text": "Postmortem human brains were obtained from autopsies carried out with respect to a dementia with Lewy bodies (DLB) and Alzheimer's disease (AD) patients. Moreover, an AD brain tissue was fixed in 10% neutral buffered formalin, embedded in a paraffin block, and sliced with a thickness of 6 μm. Postfixed fresh frozen sections of the amygdala tissue of the DLB patient and formalin fixed, paraffin embedded sections of a deparaffinized middle frontal gyrus tissue of the AD patient were used. Thirty μM of each of the above compounds and brain sections were incubated in a 50% ethanol solution for 30 minutes at room temperature. The sections were then washed twice, i.e., washed with a 50% ethanol solution for 5 minutes and with ultrapure water for 3 minutes. After mounting the sections using a mounting medium ([sequence] H-1000, Vector Laboratories), images of lesion-enriched areas on the sections were obtained using a fluorescence microscope (DM4000, Leica). Analysis software (Image J) was used to quantify the fluorescence of lesion-enriched and lesion-free (background) areas."}, "α-synuclein lesions [3]": {"biological_target": "T2, α-synuclein lesions (Mus musculus, UniProt O55042)", "T2 construct": "from tissue; host or cells: brain of C57BL/6 mice inoculated in the striatum with recombinant murine α-synuclein fibrils (made in E. coli)", "test": "Ex vivo imaging of α-synuclein fibril-injected model mouse brain", "assay_type": "in vivo", "details": "1.66 mg/kg; brains collected 90 minutes after C05-05 or 120 minutes after BF-227", "description": "A model mouse at 6 weeks after the injection of the α-synuclein fiber solution was anesthetized with 1.5% (v/v) isoflurane in a manner similar to that described in “(Preparation of α-synuclein fibril-injected mouse model)” above, and C05-05 (1.66 mg/kg) or BF-227 (1.66 mg/kg) was intraperitoneally administered.\nThe brains were collected and frozen 90 minutes after the administration of C05-05 (or 120 minutes after the administration of BF-227), and frozen sections with the thickness of 20 μm were prepared in a cryostat (HM560). After mounting the sections using a mounting medium (VECTASHIELD H-1000), images of α-synuclein aggregate-enriched areas on the sections were obtained using a fluorescence microscope (DM4000).\nMoreover, the same sections were immersed and fixed overnight in a phosphate buffer solution containing 4% paraformaldehyde. The brain after fixation was washed under running water and then treated with an autoclave for the antigen retrieval. Immunohistochemical staining with an anti-phosphorylated α-synuclein monoclonal antibody (pS129, abcam, ab59264) (1:1000) was carried out, and after mounting the sections using a mounting medium (VECTASHIELD H-1000), images of the same areas were obtained using the fluorescence microscope (DM4000). FIG. 7(a) contains images showing the case where C05-05 was administered, and FIG. 7(b) is images showing the case where BF-227 was administered."}, "[4]": {"biological_target": "T3, α-synuclein aggregate formed in the brain of the DLB patient (Homo sapiens, UniProt P37840)", "T3 construct": "Postfixed fresh frozen sections of the amygdala tissue of the DLB patient; from tissue; host or cells: post-mortem human DLB amygdala, frozen sections", "test": "In vitro fluorescence microscope measurement, DLB patient brain sections", "assay_type": "binding", "details": "for binding to the α-synuclein aggregate formed in the brain of the DLB patient, reactivity relative to PBB3: 30 μM compound, 50% ethanol, 30 minutes, room temperature, amygdala sections", "text": "Postmortem human brains were obtained from autopsies carried out with respect to a dementia with Lewy bodies (DLB) and Alzheimer's disease (AD) patients.\nA frozen DLB tissue was sliced with a thickness of 20 μm in a cryostat (HM560, Carl Zeiss).\nPostfixed fresh frozen sections of the amygdala tissue of the DLB patient and formalin fixed, paraffin embedded sections of a deparaffinized middle frontal gyrus tissue of the AD patient were used. Thirty μM of each of the above compounds and brain sections were incubated in a 50% ethanol solution for 30 minutes at room temperature. The sections were then washed twice, i.e., washed with a 50% ethanol solution for 5 minutes and with ultrapure water for 3 minutes. After mounting the sections using a mounting medium (VECTASHIELD H-1000, Vector Laboratories), images of lesion-enriched areas on the sections were obtained using a fluorescence microscope (DM4000, Leica). Analysis software (Image J) was used to quantify the fluorescence of lesion-enriched and lesion-free (background) areas."}, "α-synuclein lesions [5]": {"biological_target": "T2, α-synuclein lesions", "test": "In vivo two-photon laser scanning fluorescence microscopy of α-synuclein fibril-injected model mouse", "details": "tail vein, 50 μl of 0.05% solution; 90 minutes after C05-05 or 30 minutes after PBB3", "description": "Note that the α-synuclein aggregate was inoculated into the striatum of the mouse with the following manner. First, hair on the head of 9-week-old C57BL/6 male mouse anesthetized with 1.5% (v/v) isoflurane was removed, and the scalp was disinfected with isodine, followed by application of xylocaine and incision in the scalp to expose the skull. Then, a hole was drilled in the skull at a position of 0.05 mm posterior to the bregma and 2 mm lateral to the midline, and 3 μl of an α-synuclein fiber solution (murine α-synuclein fiber (4 mg/ml) in saline) was injected into a position […] ventral to the brain surface using a glass pipette, and then the scalp was returned and sutured.\nA model mouse was anesthetized with 1.5% (v/v) isoflurane 6 weeks after the injection of the α-synuclein fiber solution, and a cranial window was provided according to the Seylaz-Tomita method (Tomita et al. J Cereb Blood Flow Metab 25, 858-67, 2005). The mouse was anesthetized with 1.5% (v/v) isoflurane 2 weeks after the generation of the cranial window, and 50 μl of a solution of DMSO/physiological saline water=1:1 containing 0.05% of C05-05 or PBB3 was administered via the tail vein. The mouse was fixed under a two-photon laser fluorescence microscope 90 minutes after administration of C05-05 or 30 minutes after administration of PBB3, and 100 μl of a saline solution containing 5 mM of Sulforhodamine 101 was administered intraperitoneally, followed by intravital two-photon fluorescence imaging at an excitation wavelength of 900 nm. The detection wavelengths for C05-05 and PBB3 were set at 500 nm to 550 nm, and detection wavelengths for Sulforhodamine 101 were set at 573 nm to 648 nm."}, "α-synuclein aggregate [6]": {"biological_target": "T1, α-synuclein aggregate", "details": "background art, cited from earlier work"}}, "note": "Where two headings read alike, the source gives them in different places."}
{"compound": "CNc1ccc(/C=C/C=C/c2nc3ccc(OCC(O)C[18F])cc3s2)cn1", "note": "(centres unmarked) [1-(18)F-fluoro-3-(2-((1E,3E)-4-(6-(methylamino)pyridin-3-yl)buta-1,3-dienyl)benzo[d]thiazol-6-yloxy)propan-2-ol]", "values": [{"measurement": "binding selectivity for the α-synuclein aggregate compared with a tau aggregate", "setting": "α-synuclein aggregate [1]", "value": "higher binding selectivity for an aggregate of tau proteins than to an α-synuclein aggregate"}]}
{"compound": "CNc1ccc(/C=C/C=C/c2nc3ccc(OCC(O)CF)cc3s2)cn1", "note": "(centres unmarked) [1-fluoro-3-(2-((1E,3E)-4-(6-(methylamino)pyridin-3-yl)buta-1,3-dienyl)benzo[d]thiazol-6-yloxy)propan-2-ol]", "values": [{"measurement": "binding selectivity for the α-synuclein aggregate compared with a tau aggregate", "setting": "α-synuclein aggregate [1]", "value": "higher binding selectivity for an aggregate of tau proteins than to an α-synuclein aggregate"}]}
{"compound": "[11CH3]Nc1ccc(/C=C/C=C/c2nc3ccc(O)cc3s2)cn1", "note": "[2-((1E,3E)-4-(6-((11)C-methylamino)pyridin-3-yl)buta-1,3-dienyl)benzo[d]thiazol-6-ol]", "values": [{"measurement": "binding selectivity for the α-synuclein aggregate compared with a tau aggregate", "setting": "α-synuclein aggregate [1]", "value": "higher binding selectivity for an aggregate of tau proteins than to an α-synuclein aggregate"}]}
{"compound": "CN(C)c1ncc(/C=C/c2nc3ccc(OCCF)cc3o2)s1", "note": "[BF-227, 2-(2-[2-dimethylaminothiazol-5-yl]ethenyl)-6-5 (2-[fluoro]ethoxy)benzoxazole, reference compound]", "values": [{"measurement": "aggregate mainly bound", "setting": "[2]", "value": "mainly bound to the amyloid-β aggregate of AD"}, {"measurement": "detection of α-synuclein lesions by ex vivo imaging", "setting": "α-synuclein lesions [3]", "value": "no lesion was detected"}, {"measurement": "binding to the α-synuclein aggregate relative to the compounds represented by the formula (I)", "setting": "[4]; 30 μM, DLB patient brain sections", "value": "weaker than the compounds represented by the formula (I)"}]}
{"compound": "CNc1ccc(C#C/C=C/c2nc3ccc(O)cc3s2)c(F)n1", "note": "[C05-01, (E)-2-(4-(2-fluoro-6-(methylamino)pyridin-3-yl)but-1-en-3-ynyl)benzo[d]thiazol-6-ol]", "values": [{"measurement": "binding to the α-synuclein aggregate formed in the brain of the DLB patient, reactivity relative to PBB3", "setting": "[4]", "value": "reactivity equal to or greater than that of PBB3"}]}
{"compound": "CNc1ccc(C#C/C=C/c2nc3ccc(CN)cc3s2)cn1", "note": "[C05-02, (E)-5-(4-(6-(aminomethyl)benzo[d]thiazol-2-yl)but-3-en-1-ynyl)-N-methylpyridine-2-amine]", "values": [{"measurement": "binding to the α-synuclein aggregate formed in the brain of the DLB patient, reactivity relative to PBB3", "setting": "[4]", "value": "reactivity equal to or greater than that of PBB3"}]}
{"compound": "CNc1ccc(C#C/C=C/c2nc3ccc(O)cc3s2)cn1", "note": "[C05-03, (E)-2-(4-(6-(methylamino)pyridin-3-yl)but-1-en-3-ynyl)benzo[d]thiazol-6-ol]", "values": [{"measurement": "binding to the α-synuclein aggregate formed in the brain of the DLB patient, reactivity relative to PBB3", "setting": "[4]", "value": "reactivity equal to or greater than that of PBB3"}]}
{"compound": "CNc1ccc(C#C/C=C/c2nc3ccc(OC)cc3s2)c(F)n1", "note": "[C05-04]", "values": [{"measurement": "binding to the α-synuclein aggregate formed in the brain of the DLB patient, reactivity relative to PBB3", "setting": "[4]", "value": "reactivity equal to or greater than that of PBB3"}]}
{"compound": "CN(C)c1ccc(C#C/C=C/c2nc3ccc(O)cc3s2)cc1", "note": "[C05-08, (E)-2-(4-(4-(dimethylamino)phenyl)but-1-en-3-ynyl)benzo[d]thiazol-6-ol]", "values": [{"measurement": "binding to the α-synuclein aggregate formed in the brain of the DLB patient, reactivity relative to PBB3", "setting": "[4]", "value": "reactivity equal to or greater than that of PBB3"}]}
{"compound": "CNc1ccc(C#C/C=C/c2nc3ccc(O)cc3s2)cc1", "note": "[C05-09, (E)-2-(4-(4-(methylamino)phenyl)but-1-en-3-ynyl)benzo[d]thiazol-6-ol]", "values": [{"measurement": "binding to the α-synuclein aggregate formed in the brain of the DLB patient, reactivity relative to PBB3", "setting": "[4]", "value": "reactivity equal to or greater than that of PBB3"}]}
{"compound": "CNc1ccc(C#C/C=C/c2cc3cc(O)ccc3o2)c(F)n1", "note": "[C06-02]", "values": [{"measurement": "binding to the α-synuclein aggregate formed in the brain of the DLB patient, reactivity relative to PBB3", "setting": "[4]", "value": "reactivity equal to or greater than that of PBB3"}]}
{"compound": "CNc1ccc(/C=C/C=C/c2nc3ccc(O)cc3s2)cn1", "note": "[PBB3, 2-((1E,3E)-4-(6-(methylamino)pyridin-3-yl)buta-1,3-dienyl)benzo[d]thiazol-6-ol]", "values": [{"measurement": "detection of α-synuclein lesions by intravital two-photon fluorescence imaging", "setting": "α-synuclein lesions [5]", "value": "no lesion was detected"}, {"measurement": "binding selectivity for the α-synuclein aggregate compared with a tau aggregate", "setting": "α-synuclein aggregate [1]", "value": "lower binding selectivity for the α-synuclein aggregate as compared with its binding selectivity for a tau aggregate"}, {"measurement": "binding to the α-synuclein aggregate", "setting": "α-synuclein aggregate [1]", "value": "some degree of affinity"}, {"measurement": "binding selectivity for the α-synuclein aggregate compared with a tau aggregate", "setting": "α-synuclein aggregate [1]; listed as 2-((1E,3E)-4-(6-(methylamino)pyridin-3-yl)buta-1,3-dienyl)benzo[d]thiazol-6-ol", "value": "higher binding selectivity for an aggregate of tau proteins than to an α-synuclein aggregate"}]}
{"compound": "CN([11CH3])c1ncc(/C=C/c2nc3ccc(OCCF)cc3o2)s1", "note": "[[^11C]BF-227]", "values": [{"measurement": "binding selectivity for the α-synuclein aggregate", "setting": "α-synuclein aggregate [6]; binds to an amyloid-β aggregate", "value": "low"}, {"measurement": "binding affinity for the α-synuclein aggregate", "setting": "α-synuclein aggregate [6]", "value": "insufficient"}, {"measurement": "detection of α-synuclein lesions in patients by PET", "setting": "α-synuclein aggregate [6]", "value": "only in a subset of MSA patients"}]}
